In patent US20240041042A1, “1-(PYRIDYL)-5-AZINYLPYRAZOLE DERIVATIVES, AND THEIR USE FOR CONTROL OF UNDESIRED PLANT GROWTH” (Bayer Aktiengesellschaft, priority 2020, published 2024):
Where two headings read alike, the source gives them in different places.

Tests used:
Assay type in all cases: in vivo
[1] = system: Alopecurus myosuroides (ALOMY); experiment: Pre-emergence herbicidal action against ALOMY; settings: 320 g/ha; scored visually after about 3 weeks; 100% = plants have died
Outline: (§1)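 Read-out is visual percent damage relative to untreated pots, with 100% meaning dead plants and 0% meaning no difference, assessed roughly three weeks after treatment. Compounds were applied pre-emergence to the covering soil at up to 320 g/ha.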

[2] = system: Amaranthus retroflexus (AMARE); experiment: Pre-emergence herbicidal action against AMARE; settings: visual scoring after about 3 weeks vs untreated controls
Outline: as §1

[3] = system: Avena fatua (AVEFA); experiment: Pre-emergence herbicidal action against AVEFA; settings: 320 g/ha, visual scoring after about 3 weeks vs untreated controls
Outline: as §1

[4] = system: Echinochloa crus-galli (ECHCG); experiment: Pre-emergence herbicidal action against ECHCG; settings: dosage 320 g/ha
Outline: as §1

[5] = system: Lolium rigidum (LOLRI); experiment: Pre-emergence herbicidal action against LOLRI; settings: dosage 320 g/ha
Outline: as §1

[6] = system: Matricaria inodora (MATIN); experiment: Pre-emergence herbicidal action against MATIN; settings: dosage 320 g/ha
Outline: as §1

[7] = system: Polygonum convolvulus (POLCO); experiment: Pre-emergence herbicidal action against POLCO
Outline: as §1

[8] = system: Setaria viridis (SETVI); experiment: Pre-emergence herbicidal action against SETVI; settings: dosage 320 g/ha
Outline: as §1

[9] = system: Verconica persica (VERPE); experiment: Pre-emergence herbicidal action against VERPE; settings: dosage 320 g/ha
Outline: as §1

[10] = system: Viola tricolor (VIOTR); experiment: Pre-emergence herbicidal action against VIOTR
Outline: as §1

[11] = system: Oryza sativa (ORYSA); settings: pre-emergence, crop plant compatibility, in comparison to untreated controls
Outline: (§2)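 Scoring: visual, % of untreated control, about 3 weeks after a pre-emergence application to the soil surface. Application used WP or EC formulations diluted in water with 0.5% additive at 600 l/ha; dosage levels are marked by suffixes a, b and c.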

[12] = system: Zea mays (ZEAMX); settings: pre-emergence, crop plant compatibility, in comparison to untreated controls
Outline: as §2

[13] = system: Abutilon theophrasti (ABUTH); experiment: Post-emergence herbicidal action against ABUTH; settings: visual rating about 3 weeks after treatment vs untreated controls (100% = plants have died, 0% = like control plants)
Outline: (§3)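 Rates were 320 g/ha or below, applied as aqueous WP/EC spray with 0.5% additive (600 l/ha) onto one-leaf-stage plants. About 3 weeks later in the greenhouse, damage was scored visually against untreated plants on a 0–100% scale, where 100% means plants died.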

[14] = system: Alopecurus myosuroides (ALOMY); experiment: Post-emergence herbicidal action against ALOMY; settings: visual rating about 3 weeks after treatment vs untreated controls (100% = plants have died, 0% = like control plants)
Outline: as §3

[15] = system: Amaranthus retroflexus (AMARE); experiment: Post-emergence herbicidal action against AMARE
Outline: as §3

[16] = system: Avena fatua (AVEFA); experiment: Post-emergence herbicidal action against AVEFA; settings: visual rating about 3 weeks after treatment
Outline: as §3

[17] = system: Echinochloa crus-galli (ECHCG); experiment: Post-emergence herbicidal action against ECHCG
Outline: as §3

[18] = system: Lolium rigidum (LOLRI); experiment: Post-emergence herbicidal action against LOLRI; settings: dosage 320 g/ha
Outline: as §3

[19] = system: Matricaria inodora (MATIN); experiment: Post-emergence herbicidal action against MATIN; settings: dosage 320 g/ha
Outline: as §3

[20] = system: Pharbitis purpurea (PHBPU); experiment: Post-emergence herbicidal action against PHBPU
Outline: as §3

[21] = system: Polygonum convolvulus (POLCO); experiment: Post-emergence herbicidal action against POLCO
Outline: as §3

[22] = system: Setaria viridis (SETVI); experiment: Post-emergence herbicidal action against SETVI
Outline: as §3

[23] = system: Verconica persica (VERPE); experiment: Post-emergence herbicidal action against VERPE
Outline: as §3

[24] = system: Viola tricolor (VIOTR); experiment: Post-emergence herbicidal action against VIOTR
Outline: as §3

[25] = system: Oryza sativa (ORYSA); settings: crop plant compatibility
Outline: (§4)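 Visual rating (% effect vs. untreated plants; 100% = plant death) made about 3 weeks after treatment. Plants had been sprayed at one-leaf stage, 2–3 weeks post-sowing, with aqueous WP/EC preparations containing 0.5% additive, 600 l/ha water volume; a, b, c mark dose levels.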

[26] = system: Zea mays (ZEAMX); settings: for Post-emergence action against ZEAMX in %: crop plant compatibility, effect vs untreated controls
Outline: as §4

[27] = system: Triticum aestivum (TRZAS); settings: crop plant compatibility, 80 g/ha, effect vs untreated controls
Outline: as §4

[28] = system: Pharbitis purpurea (PHBPU); experiment: Pre-emergence herbicidal action against PHBPU; settings: dosage 320 g/ha
Outline: as §1

[29] = 80 g/ha, visual rating about 3 weeks after treatment vs untreated controls (100% = plants have died, 0% = like control plants)
[30] = 320 g/ha, visual rating about 3 weeks after treatment
[31] = 80 g/ha, effect in comparison to untreated controls

Structure (SMILES) | Pre-emergence action against ALOMY [1] | Pre-emergence action against AMARE in % ([2]; 320 g/ha) | Pre-emergence action against AVEFA in % [3] | Pre-emergence action against ECHCG in % [4] | Pre-emergence action against LOLRI in % [5] | Pre-emergence action against MATIN in % [6] | Pre-emergence action against POLCO in % ([7]; dosage 320 g/ha) | Pre-emergence action against SETVI in % [8] | Pre-emergence action against VERPE in % [9] | Pre-emergence action against VIOTR in % ([10]; 320 g/ha, Viola tricolor) | Pre-emergence action against VIOTR in % ([10]; dosage 80 g/ha) | Pre-emergence action against ORYSA in % ([11]; 80 g/ha) | Pre-emergence action against ZEAMX in % ([12]; 80 g/ha) | Post-emergence action against ALOMY in % ([14]; 320 g/ha) | Post-emergence action against AMARE in % [15, 29] | Post-emergence action against AMARE in % [15, 30] | Post-emergence action against ECHCG in % ([17]; dosage 320 g/ha) | Post-emergence action against POLCO in % ([21]; dosage 320 g/ha) | Post-emergence action against SETVI in % ([22]; dosage 320 g/ha) | Post-emergence action against ORYSA in % [25, 31] | also measured
COC(=O)COc1nn(-c2ncccc2Cl)c(-c2ccc(F)nc2)c1Br [Example I-28] | 100% | 100% | 100% | 100% | 100% | 90% | 90% | 100% | 100% | 100% | 100% | 0% | 10% | 100% | 90% | 90% | 90% | 80% | 90% | 0% | Pre-emergence action against AMARE in % ([2]; 80 g/ha): 90%; Pre-emergence action against POLCO in % ([7]; dosage 80 g/ha): 80%; Post-emergence action against ABUTH in % ([13]; 80 g/ha): 80%; Post-emergence action against ABUTH in % ([13]; 320 g/ha): 90%; Post-emergence action against ALOMY in % ([14]; 80 g/ha): 100%; Post-emergence action against AVEFA in % ([16]; 80 g/ha): 100%; Post-emergence action against AVEFA in % ([16]; 320 g/ha): 100%; Post-emergence action against ECHCG in % ([17]; dosage 80 g/ha): 80%; Post-emergence action against LOLRI in % [18]: 90%; Post-emergence action against MATIN in % [19]: 80%; Post-emergence action against PHBPU in % ([20]; dosage 80 g/ha): 80%; Post-emergence action against PHBPU in % ([20]; dosage 320 g/ha): 80%; Post-emergence action against SETVI in % ([22]; dosage 80 g/ha): 80%; Post-emergence action against VERPE in % ([23]; 320 g/ha, VERPE): 80%; Post-emergence action against VIOTR in % ([24]; 80 g/ha): 80%; Post-emergence action against VIOTR in % ([24]; 320 g/ha): 80%; Post-emergence action against ZEAMX in % ([26]; 80 g/ha): 0%
CSCCOC(=O)COc1nn(-c2ccccn2)c(-c2ccc(F)nc2)c1Br [Example I-95] | 80% | 100% | 80% | – | – | 80% | 90% | 100% | 100% | 100% | 100% | 0% | 0% | 100% | 80% | 90% | 90% | 80% | 90% | 0% | Pre-emergence action against AMARE in % ([2]; 80 g/ha): 90%; Pre-emergence action against ORYSA in % ([11]; 320 g/ha): 0%; Pre-emergence action against ZEAMX in % ([12]; 320 g/ha): 0%; Post-emergence action against ABUTH in % ([13]; 80 g/ha): 80%; Post-emergence action against ABUTH in % ([13]; 320 g/ha): 80%; Post-emergence action against AVEFA in % ([16]; 80 g/ha): 80%; Post-emergence action against AVEFA in % ([16]; 320 g/ha): 80%; Post-emergence action against LOLRI in % [18]: 80%; Post-emergence action against MATIN in % [19]: 80%; Post-emergence action against POLCO in % ([21]; dosage 80 g/ha): 80%; Post-emergence action against VERPE in % ([23]; 320 g/ha, VERPE): 80%; Post-emergence action against VERPE in % ([23]; dosage 80 g/ha): 80%; Post-emergence action against VIOTR in % ([24]; 320 g/ha): 80%
C=CCNC(=O)COc1nn(-c2ncccc2F)c(-c2ccc(F)nc2)c1Br [Example I-31] | – | 90% | 80% | 90% | – | – | 80% | 90% | 90% | 90% | – | 0% | 0% | – | – | 80% | – | 80% | – | 0% | Pre-emergence action against ORYSA in % ([11]; 320 g/ha): 0%; Post-emergence action against VIOTR in % ([24]; 320 g/ha): 80%; Post-emergence action against ORYSA in % ([25]; 320 g/ha, effect in comparison to untreated controls): 10%; Post-emergence action against TRZAS in % [27]: 10%; Post-emergence action against ZEAMX in % ([26]; 80 g/ha): 0%; Post-emergence action against ZEAMX in % ([26]; 320 g/ha): 0%
CCOC(=O)CSc1nn(-c2ccccn2)c(-c2cncc(F)c2)c1C1CC1 [Example I-156] | – | 100% | – | 90% | 80% | 80% | – | 90% | – | 90% | 80% | 0% | 0% | 80% | 80% | 90% | 80% | 80% | 80% | 0% | Pre-emergence action against PHBPU in % [28]: 80%; Pre-emergence action against ZEAMX in % ([12]; 320 g/ha): 20%; Post-emergence action against AVEFA in % ([16]; 320 g/ha): 90%; Post-emergence action against ECHCG in % ([17]; dosage 80 g/ha): 80%; Post-emergence action against MATIN in % [19]: 80%; Post-emergence action against PHBPU in % ([20]; dosage 320 g/ha): 90%; Post-emergence action against VERPE in % ([23]; 320 g/ha, VERPE): 80%
CCOC(=O)COc1nn(-c2ncccc2Cl)c(-c2ccc(F)nc2)c1Br [Example I-23] | 100% | 100% | 90% | 100% | 100% | 90% | 90% | 100% | 90% | 100% | 90% | 10% | 10% | – | – | – | – | – | – | 10% | Pre-emergence action against AMARE in % ([2]; 80 g/ha): 90%; Pre-emergence action against PHBPU in % [28]: 90%; Post-emergence action against ALOMY in % ([14]; 80 g/ha): 90%; Post-emergence action against AVEFA in % ([16]; 80 g/ha): 90%; Post-emergence action against ECHCG in % ([17]; dosage 80 g/ha): 80%; Post-emergence action against VERPE in % ([23]; dosage 80 g/ha): 80%; Post-emergence action against ORYSA in % ([25]; 20 g/ha, effect vs untreated controls): 0%; Post-emergence action against ZEAMX in % (crop plant compatibility) ([26]; 20 g/ha, ZEAMX, effect in comparison to untreated controls): 0%; Post-emergence action against ZEAMX in % ([26]; 80 g/ha): 10%
CCOC(=O)CSc1nn(-c2ccccn2)c(-c2cncc(F)c2)c1I [Example I-152] | 80% | 100% | – | 90% | – | 90% | – | 90% | – | 90% | 80% | 20% | 10% | 80% | 80% | 80% | 80% | 80% | 80% | 0% | Post-emergence action against ABUTH in % ([13]; 320 g/ha): 80%; Post-emergence action against ECHCG in % ([17]; dosage 80 g/ha): 80%; Post-emergence action against PHBPU in % ([20]; dosage 80 g/ha): 80%; Post-emergence action against PHBPU in % ([20]; dosage 320 g/ha): 90%; Post-emergence action against SETVI in % ([22]; dosage 80 g/ha): 80%; Post-emergence action against VERPE in % ([23]; 320 g/ha, VERPE): 80%
COCCOC(=O)COc1nn(-c2ncccc2C(F)(F)F)c(-c2ccc(F)nc2)c1Cl [Example I-362] | 100% | 90% | – | – | 100% | – | 80% | 80% | – | 100% | – | 20% | 0% | 90% | – | – | 80% | – | 80% | 10% | Post-emergence action against LOLRI in % [18]: 80%; Post-emergence action against PHBPU in % ([20]; dosage 320 g/ha): 80%; Post-emergence action against VIOTR in % ([24]; 80 g/ha): 80%; Post-emergence action against VIOTR in % ([24]; 320 g/ha): 80%; Post-emergence action against ZEAMX in % ([26]; 80 g/ha): 0%
